{"source": "paper PMC9516332", "about": "(Frontiers in Oncology, 2022)", "key": {"[1]": {"target": "panel of 255 wild-type kinases (Homo sapiens, UniProt Q9H422)", "sequence (Q9H422 whole entry)": "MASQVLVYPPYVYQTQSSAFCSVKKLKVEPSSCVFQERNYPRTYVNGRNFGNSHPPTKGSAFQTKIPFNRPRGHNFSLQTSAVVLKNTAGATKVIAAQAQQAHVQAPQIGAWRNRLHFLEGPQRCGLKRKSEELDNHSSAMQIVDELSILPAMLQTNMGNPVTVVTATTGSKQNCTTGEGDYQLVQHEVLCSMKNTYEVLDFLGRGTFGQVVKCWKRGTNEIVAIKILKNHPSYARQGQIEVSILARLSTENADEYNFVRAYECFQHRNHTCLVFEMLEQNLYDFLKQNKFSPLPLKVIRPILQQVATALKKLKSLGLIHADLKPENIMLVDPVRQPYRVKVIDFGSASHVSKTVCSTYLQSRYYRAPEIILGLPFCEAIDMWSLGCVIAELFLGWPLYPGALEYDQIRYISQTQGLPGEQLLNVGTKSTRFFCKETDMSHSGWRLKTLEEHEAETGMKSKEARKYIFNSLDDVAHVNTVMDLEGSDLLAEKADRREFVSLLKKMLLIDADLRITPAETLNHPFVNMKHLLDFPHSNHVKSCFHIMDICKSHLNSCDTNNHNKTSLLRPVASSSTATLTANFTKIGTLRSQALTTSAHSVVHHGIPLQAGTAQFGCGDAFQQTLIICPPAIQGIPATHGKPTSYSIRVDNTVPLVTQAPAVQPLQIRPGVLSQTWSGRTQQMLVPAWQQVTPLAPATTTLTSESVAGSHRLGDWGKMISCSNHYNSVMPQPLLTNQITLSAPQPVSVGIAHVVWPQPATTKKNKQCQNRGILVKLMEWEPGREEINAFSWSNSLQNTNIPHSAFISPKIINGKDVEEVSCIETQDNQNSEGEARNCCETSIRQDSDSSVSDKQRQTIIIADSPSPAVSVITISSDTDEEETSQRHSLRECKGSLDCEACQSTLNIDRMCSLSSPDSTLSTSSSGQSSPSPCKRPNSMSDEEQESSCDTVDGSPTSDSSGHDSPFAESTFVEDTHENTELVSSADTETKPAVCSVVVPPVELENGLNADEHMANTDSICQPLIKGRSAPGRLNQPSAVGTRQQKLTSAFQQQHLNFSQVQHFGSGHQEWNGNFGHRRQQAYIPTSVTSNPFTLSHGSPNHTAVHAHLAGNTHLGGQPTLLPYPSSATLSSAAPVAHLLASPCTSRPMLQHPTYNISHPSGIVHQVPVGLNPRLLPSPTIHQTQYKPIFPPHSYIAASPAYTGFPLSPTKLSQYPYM", "test": "Kinase panel profiling at 1 µmol/L (MSA or IMAP), percentage inhibition", "format": "biochemical", "details": "kinase HIPK3; 1 µmol/L single concentration; read-out: %-inhibition at 1 µmol/L, HIPK3"}, "[2]": {"target": "panel of 255 wild-type kinases (Homo sapiens, UniProt P48729)", "sequence (P48729 whole entry)": "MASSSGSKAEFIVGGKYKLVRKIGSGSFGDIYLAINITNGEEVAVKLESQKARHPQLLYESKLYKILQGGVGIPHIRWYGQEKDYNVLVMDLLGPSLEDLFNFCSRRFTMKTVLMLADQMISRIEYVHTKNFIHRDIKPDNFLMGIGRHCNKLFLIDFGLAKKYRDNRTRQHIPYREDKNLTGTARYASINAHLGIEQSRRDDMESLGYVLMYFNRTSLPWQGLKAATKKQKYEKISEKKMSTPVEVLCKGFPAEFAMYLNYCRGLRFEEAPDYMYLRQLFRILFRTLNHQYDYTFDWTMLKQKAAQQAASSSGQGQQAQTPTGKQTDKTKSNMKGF", "test": "Kinase panel profiling at 1 µmol/L (MSA or IMAP), percentage inhibition", "format": "biochemical", "details": "kinase CK1α; 1 µmol/L single concentration; read-out: %-inhibition at 1 µmol/L, CK1α"}, "[3]": {"target": "panel of 255 wild-type kinases (Homo sapiens, UniProt Q16816)", "sequence (Q16816 whole entry)": "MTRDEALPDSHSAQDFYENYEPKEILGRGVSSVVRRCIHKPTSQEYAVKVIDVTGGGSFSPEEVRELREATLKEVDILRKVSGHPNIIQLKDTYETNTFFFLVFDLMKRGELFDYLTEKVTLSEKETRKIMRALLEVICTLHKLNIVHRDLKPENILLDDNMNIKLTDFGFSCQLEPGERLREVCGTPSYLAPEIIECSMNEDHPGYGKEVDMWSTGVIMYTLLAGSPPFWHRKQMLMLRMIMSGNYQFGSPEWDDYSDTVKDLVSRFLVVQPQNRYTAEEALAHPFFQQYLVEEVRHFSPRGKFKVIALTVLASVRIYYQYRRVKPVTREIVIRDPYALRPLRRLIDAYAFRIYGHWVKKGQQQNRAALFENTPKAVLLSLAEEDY", "test": "Kinase panel profiling at 1 µmol/L (MSA or IMAP), percentage inhibition", "format": "biochemical", "details": "kinase PHKG1; 1 µmol/L single concentration; read-out: %-inhibition at 1 µmol/L, PHKG1"}, "[4]": {"target": "panel of 255 wild-type kinases (Homo sapiens, UniProt Q13882)", "sequence (Q13882 whole entry)": "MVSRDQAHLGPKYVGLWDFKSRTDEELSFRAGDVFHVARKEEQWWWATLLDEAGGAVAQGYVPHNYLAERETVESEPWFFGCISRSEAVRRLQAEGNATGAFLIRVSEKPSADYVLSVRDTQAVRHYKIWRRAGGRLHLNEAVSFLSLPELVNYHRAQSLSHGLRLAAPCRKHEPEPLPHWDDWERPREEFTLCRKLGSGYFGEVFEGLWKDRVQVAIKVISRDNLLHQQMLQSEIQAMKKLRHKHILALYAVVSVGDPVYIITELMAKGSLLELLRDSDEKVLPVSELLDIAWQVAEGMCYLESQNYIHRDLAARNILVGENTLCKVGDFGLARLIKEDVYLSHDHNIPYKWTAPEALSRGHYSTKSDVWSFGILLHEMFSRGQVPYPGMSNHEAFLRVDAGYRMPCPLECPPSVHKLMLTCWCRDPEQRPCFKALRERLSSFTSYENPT", "test": "Kinase panel profiling at 1 µmol/L (MSA or IMAP), percentage inhibition", "format": "biochemical", "details": "BRK kinase assay; 1 µmol/L single concentration; read-out: %-inhibition BRK"}, "[5]": {"tested_on": "AP-1060 (ETV6-NTRK3)", "test": "Cell viability assay", "details": "read-out: IC50 in cell proliferation assay"}, "[6]": {"tested_on": "134 cancer cell lines", "test": "Cell viability assay (ATPlite, 72 hours), IC50 on cancer cell line panel"}}, "note": "Like-named read-outs stand apart in the source and are kept apart here.", "data": [{"smiles": "C=CC(=O)N1CCC([C@@H]2CCNc3c(C(N)=O)c(-c4ccc(Oc5ccccc5)cc4)nn32)CC1", "note": "[zanubrutinib]", "values": [{"measurement": "inhibition at 1 µM", "setting": "[1]", "result": -2.42, "unit": "%"}, {"measurement": "inhibition at 1 µM", "setting": "[2]", "result": -0.607, "unit": "%"}, {"measurement": "inhibition at 1 µM", "setting": "[3]", "result": 2.38, "unit": "%"}, {"measurement": "inhibition at 1 µM", "setting": "[4]", "result": 99, "unit": "%"}, {"measurement": "IC50", "setting": "[5]", "result": "> 31.6", "unit": "µM"}, {"measurement": "IC50", "setting": "[6]; HEC-6, read-out: IC50 in cell proliferation assay", "result": 0.355, "unit": "µM"}, {"measurement": "IC50", "setting": "[6]; Homo sapiens, 769-P, read-out: IC50 in cell proliferation assay", "result": 4.48, "unit": "µM"}, {"measurement": "IC50", "setting": "[6]; Homo sapiens, 786-0, read-out: IC50 in cell proliferation assay", "result": 2.19, "unit": "µM"}, {"measurement": "IC50", "setting": "[6]; Homo sapiens, A 172, read-out: IC50 in cell proliferation assay", "result": "> 31.6", "unit": "µM"}, {"measurement": "IC50", "setting": "[6]; Homo sapiens, A204, read-out: IC50 in cell proliferation assay", "result": 27.9, "unit": "µM"}, {"measurement": "IC50", "setting": "[6]; Homo sapiens, A498, read-out: IC50 in cell proliferation assay", "result": 5.51, "unit": "µM"}, {"measurement": "IC50", "setting": "[6]; Homo sapiens, A549, read-out: IC50 in cell proliferation assay", "result": 24.7, "unit": "µM"}, {"measurement": "IC50", "setting": "[6]; Homo sapiens, A704, read-out: IC50 in cell proliferation assay", "result": "> 31.6", "unit": "µM"}, {"measurement": "IC50", "setting": "[6]; Homo sapiens, A-375, read-out: IC50 in cell proliferation assay", "result": "> 31.6", "unit": "µM"}, {"measurement": "IC50", "setting": "[6]; Homo sapiens, A-427, read-out: IC50 in cell proliferation assay", "result": 8.55, "unit": "µM"}, {"measurement": "IC50", "setting": "[6]; Homo sapiens, ACHN, read-out: IC50 in cell proliferation assay", "result": 2.75, "unit": "µM"}, {"measurement": "IC50", "setting": "[6]; Homo sapiens, AN3-CA, read-out: IC50 in cell proliferation assay", "result": 29.8, "unit": "µM"}, {"measurement": "IC50", "setting": "[6]; Homo sapiens, ASPC1, read-out: IC50 in cell proliferation assay", "result": 7.83, "unit": "µM"}, {"measurement": "IC50", "setting": "[6]; Homo sapiens, AU565, read-out: IC50 in cell proliferation assay", "result": 0.303, "unit": "µM"}, {"measurement": "IC50", "setting": "[6]; Homo sapiens, BT-20, read-out: IC50 in cell proliferation assay", "result": 15.1, "unit": "µM"}, {"measurement": "IC50", "setting": "[6]; Homo sapiens, BT-474, read-out: IC50 in cell proliferation assay", "result": 0.213, "unit": "µM"}, {"measurement": "IC50", "setting": "[6]; Homo sapiens, BT-549, read-out: IC50 in cell proliferation assay", "result": 12, "unit": "µM"}, {"measurement": "IC50", "setting": "[6]; Homo sapiens, BXPC-3, read-out: IC50 in cell proliferation assay", "result": 3.04, "unit": "µM"}, {"measurement": "IC50", "setting": "[6]; Homo sapiens, C-33-A, read-out: IC50 in cell proliferation assay", "result": 1.1, "unit": "µM"}, {"measurement": "IC50", "setting": "[6]; Homo sapiens, CAL-27, read-out: IC50 in cell proliferation assay", "result": 1.37, "unit": "µM"}, {"measurement": "IC50", "setting": "[6]; Homo sapiens, CCF-STTG1, read-out: IC50 in cell proliferation assay", "result": "> 31.6", "unit": "µM"}, {"measurement": "IC50", "setting": "[6]; Homo sapiens, CCRF-CEM, read-out: IC50 in cell proliferation assay", "result": 13.2, "unit": "µM"}, {"measurement": "IC50", "setting": "[6]; Homo sapiens, COLO 205, read-out: IC50 in cell proliferation assay", "result": "> 31.6", "unit": "µM"}, {"measurement": "IC50", "setting": "[6]; Homo sapiens, COLO-829, read-out: IC50 in cell proliferation assay", "result": "> 31.6", "unit": "µM"}, {"measurement": "IC50", "setting": "[6]; Homo sapiens, DLD-1, read-out: IC50 in cell proliferation assay", "result": "> 31.6", "unit": "µM"}, {"measurement": "IC50", "setting": "[6]; Homo sapiens, DU-145, read-out: IC50 in cell proliferation assay", "result": 1.05, "unit": "µM"}, {"measurement": "IC50", "setting": "[6]; Homo sapiens, DU-4475, read-out: IC50 in cell proliferation assay", "result": 18.1, "unit": "µM"}, {"measurement": "IC50", "setting": "[6]; Homo sapiens, Daoy, read-out: IC50 in cell proliferation assay", "result": 23.4, "unit": "µM"}, {"measurement": "IC50", "setting": "[6]; Homo sapiens, DoTc2-4510, read-out: IC50 in cell proliferation assay", "result": 1.5, "unit": "µM"}, {"measurement": "IC50", "setting": "[6]; Homo sapiens, EOL1, read-out: IC50 in cell proliferation assay", "result": 2.74, "unit": "µM"}, {"measurement": "IC50", "setting": "[6]; Homo sapiens, FaDu, read-out: IC50 in cell proliferation assay", "result": 0.751, "unit": "µM"}, {"measurement": "IC50", "setting": "[6]; Homo sapiens, G-361, read-out: IC50 in cell proliferation assay", "result": 31.4, "unit": "µM"}, {"measurement": "IC50", "setting": "[6]; Homo sapiens, HCC827, read-out: IC50 in cell proliferation assay", "result": 1.33, "unit": "µM"}, {"measurement": "IC50", "setting": "[6]; Homo sapiens, HCC4006, read-out: IC50 in cell proliferation assay", "result": 1.36, "unit": "µM"}, {"measurement": "IC50", "setting": "[6]; Homo sapiens, HCT-15, read-out: IC50 in cell proliferation assay", "result": 15.7, "unit": "µM"}, {"measurement": "IC50", "setting": "[6]; Homo sapiens, HCT-116, read-out: IC50 in cell proliferation assay", "result": "> 31.6", "unit": "µM"}, {"measurement": "IC50", "setting": "[6]; Homo sapiens, HEC-1, read-out: IC50 in cell proliferation assay", "result": "> 31.6", "unit": "µM"}, {"measurement": "IC50", "setting": "[6]; Homo sapiens, HEC-1B, read-out: IC50 in cell proliferation assay", "result": 5.59, "unit": "µM"}, {"measurement": "IC50", "setting": "[6]; Homo sapiens, HL-60, read-out: IC50 in cell proliferation assay", "result": "> 31.6", "unit": "µM"}, {"measurement": "IC50", "setting": "[6]; Homo sapiens, HT, read-out: IC50 in cell proliferation assay", "result": "> 31.6", "unit": "µM"}, {"measurement": "IC50", "setting": "[6]; Homo sapiens, HT-1080, read-out: IC50 in cell proliferation assay", "result": "> 31.6", "unit": "µM"}, {"measurement": "IC50", "setting": "[6]; Homo sapiens, Hs746T, read-out: IC50 in cell proliferation assay", "result": "> 31.6", "unit": "µM"}, {"measurement": "IC50", "setting": "[6]; Homo sapiens, Hs-578T, read-out: IC50 in cell proliferation assay", "result": 28.4, "unit": "µM"}, {"measurement": "IC50", "setting": "[6]; Homo sapiens, HuTu80, read-out: IC50 in cell proliferation assay", "result": 0.961, "unit": "µM"}, {"measurement": "IC50", "setting": "[6]; Homo sapiens, J82, read-out: IC50 in cell proliferation assay", "result": "> 31.6", "unit": "µM"}, {"measurement": "IC50", "setting": "[6]; Homo sapiens, Jurkat E6.1, read-out: IC50 in cell proliferation assay", "result": 19.1, "unit": "µM"}, {"measurement": "IC50", "setting": "[6]; Homo sapiens, K562, read-out: IC50 in cell proliferation assay", "result": "> 31.6", "unit": "µM"}, {"measurement": "IC50", "setting": "[6]; Homo sapiens, KATO III, read-out: IC50 in cell proliferation assay", "result": 5.47, "unit": "µM"}, {"measurement": "IC50", "setting": "[6]; Homo sapiens, KG-1, read-out: IC50 in cell proliferation assay", "result": 2.85, "unit": "µM"}, {"measurement": "IC50", "setting": "[6]; Homo sapiens, KLE, read-out: IC50 in cell proliferation assay", "result": 2.73, "unit": "µM"}, {"measurement": "IC50", "setting": "[6]; Homo sapiens, KMS-11, read-out: IC50 in cell proliferation assay", "result": 22.6, "unit": "µM"}, {"measurement": "IC50", "setting": "[6]; Homo sapiens, KU812, read-out: IC50 in cell proliferation assay", "result": 12.3, "unit": "µM"}, {"measurement": "IC50", "setting": "[6]; Homo sapiens, Kasumi 1, read-out: IC50 in cell proliferation assay", "result": 3.36, "unit": "µM"}, {"measurement": "IC50", "setting": "[6]; Homo sapiens, LC-2-ad, read-out: IC50 in cell proliferation assay", "result": 16.5, "unit": "µM"}]}]}
